Values joined by “and” are separate entries in the source; they are usually repeats but may differ in a detail not shown here. Equal entries are not always repeated. “Also recorded” adds a separate entry of the source.
Key:
[1] = pharmacokinetics in CD1 mice; assay type: in vivo, mouse; conditions: for Kp at 30 min: CD1, mouse, brain, read-out: Brain penetration; for Kp at 30 min / Brain penetration: relative to plasma level 30 min after 1 mg/kg IV; for bioavailability: read-out: %F (bioavailability)
Method: Pharmacokinetic studies were carried out at Cerep using non-cannulated, non-fasted CD1 mice (Charles River Laboratories, Wilmington, MA). PMP-311 or PMP-072 were formulated in phosphate buffered saline (PBS), pH 7.4, as a clear solution and 1 mg/kg was administered by bolus intravenous (IV) injection or 5 mg/kg by oral gavage. Plasma samples were obtained from 3 mice per time point at 15, 30, 60, 120, 240, 360, 480 and 1440 min post-dose. The plasma samples were processed using acetonitrile precipitation and analyzed by HPLC-MS or HPLC-MS/MS to determine the concentration of drug as compared to a plasma calibration curve (aliquots of drug-free plasma were spiked with the test compound at the specified concentration levels and processed together with the unknown plasma samples using the same procedure). The processed plasma samples were stored frozen (−20°C) until the HPLC-MS/MS analysis. Peak areas were recorded, and the concentrations of the test compound in the unknown plasma samples were determined using the respective calibration curve. The reportable linear range of the assay was determined, along with the lower limit of quantitation (LLQ).
Plots of plasma concentration of compound versus time were constructed. The fundamental pharmacokinetic parameters of compound after oral and IV dosing (Cmax: maximum concentration, Tmax: time to maximum concentration, T1/2: terminal elimination half-life, AUC: area under the curve, CI: clearance, Vd: volume of distribution, and %F: bioavailability) were obtained from the non-compartmental analysis of the plasma data using WinNonlin (Pharsight, St. Louis, MO).

[2] = target: T1, α4β2 nAChR (Rattus norvegicus, UniProt P09483+P12390); assay: cytisine binding to rat brain membranes; conditions: read-out: Ki, α4β2nAChR binding affinity
T1 construct: tissue Cerep; host or cells: rat brain membranes
T1 sequence (P09483 31-630): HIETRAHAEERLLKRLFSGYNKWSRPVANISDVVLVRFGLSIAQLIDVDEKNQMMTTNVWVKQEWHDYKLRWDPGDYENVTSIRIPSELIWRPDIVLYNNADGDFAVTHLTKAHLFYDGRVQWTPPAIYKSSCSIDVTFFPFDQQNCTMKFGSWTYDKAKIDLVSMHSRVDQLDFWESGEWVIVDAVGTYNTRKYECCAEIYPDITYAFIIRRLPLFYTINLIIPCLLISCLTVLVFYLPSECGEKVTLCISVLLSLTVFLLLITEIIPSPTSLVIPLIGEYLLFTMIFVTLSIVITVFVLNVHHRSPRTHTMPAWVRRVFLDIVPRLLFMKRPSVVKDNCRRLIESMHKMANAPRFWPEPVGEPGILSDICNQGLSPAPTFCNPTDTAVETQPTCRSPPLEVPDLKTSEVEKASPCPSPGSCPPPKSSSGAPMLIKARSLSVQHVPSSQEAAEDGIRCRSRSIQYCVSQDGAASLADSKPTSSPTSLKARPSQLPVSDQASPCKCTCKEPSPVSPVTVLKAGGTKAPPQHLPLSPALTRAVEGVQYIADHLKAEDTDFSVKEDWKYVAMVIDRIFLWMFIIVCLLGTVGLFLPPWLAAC
T1 sequence (P12390 25-500): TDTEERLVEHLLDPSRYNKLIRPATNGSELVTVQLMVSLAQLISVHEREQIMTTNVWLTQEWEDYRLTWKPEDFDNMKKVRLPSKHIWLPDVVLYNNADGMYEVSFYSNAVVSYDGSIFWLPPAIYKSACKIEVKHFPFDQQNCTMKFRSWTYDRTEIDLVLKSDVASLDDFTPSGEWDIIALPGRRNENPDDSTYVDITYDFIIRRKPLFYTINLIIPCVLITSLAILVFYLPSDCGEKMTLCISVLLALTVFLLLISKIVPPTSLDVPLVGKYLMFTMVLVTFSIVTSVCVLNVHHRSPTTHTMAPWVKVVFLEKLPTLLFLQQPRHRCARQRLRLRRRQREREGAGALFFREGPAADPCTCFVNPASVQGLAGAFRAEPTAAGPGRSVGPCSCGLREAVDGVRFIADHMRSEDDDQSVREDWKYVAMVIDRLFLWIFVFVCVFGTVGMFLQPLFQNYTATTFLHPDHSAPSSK
Method: (§1) Broad selectivity was assessed at Cerep (Celle l’ Evescault, France), as described in the Cerep catalog, though the determination of the effect of PMP-311 and PMP-072 in in vitro radioligand receptor binding assays with 52 different receptors, channels, and transporters. The specific ligand binding to the receptors is defined as the difference between the total binding, and the nonspecific binding determined in the presence of an excess of unlabelled ligand. The results are expressed as a percent of control specific binding and as the mean percent inhibition of control specific binding obtained in the presence of 10 μM PMP-311 and PMP-072. Individual and mean values are presented in the results section. The IC50 values (concentration causing a half-maximal inhibition of control specific binding) and Hill coefficients (nH) were determined by non-linear regression as described above.

[3] = target: T2, α1β1 nAChR (muscle receptor) (Homo sapiens, UniProt P02708+P07510+P11230+Q07001); assay: α-bungarotoxin binding to TE671 cell membranes
T2 construct: host or cells: TE671 cell membranes
T2 sequence (P02708 21-457): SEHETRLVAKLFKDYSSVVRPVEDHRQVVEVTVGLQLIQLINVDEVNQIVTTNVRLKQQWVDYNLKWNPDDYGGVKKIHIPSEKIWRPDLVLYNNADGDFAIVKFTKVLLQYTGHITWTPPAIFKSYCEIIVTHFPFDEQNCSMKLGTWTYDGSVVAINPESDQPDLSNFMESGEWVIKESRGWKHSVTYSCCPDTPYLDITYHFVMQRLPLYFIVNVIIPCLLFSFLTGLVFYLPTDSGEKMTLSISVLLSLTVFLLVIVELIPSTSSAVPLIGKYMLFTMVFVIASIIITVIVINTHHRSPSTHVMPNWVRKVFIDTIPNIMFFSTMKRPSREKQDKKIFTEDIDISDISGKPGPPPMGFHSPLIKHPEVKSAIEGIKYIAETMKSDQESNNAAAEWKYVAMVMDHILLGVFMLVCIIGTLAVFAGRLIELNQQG
T2 sequence (Q07001 22-517): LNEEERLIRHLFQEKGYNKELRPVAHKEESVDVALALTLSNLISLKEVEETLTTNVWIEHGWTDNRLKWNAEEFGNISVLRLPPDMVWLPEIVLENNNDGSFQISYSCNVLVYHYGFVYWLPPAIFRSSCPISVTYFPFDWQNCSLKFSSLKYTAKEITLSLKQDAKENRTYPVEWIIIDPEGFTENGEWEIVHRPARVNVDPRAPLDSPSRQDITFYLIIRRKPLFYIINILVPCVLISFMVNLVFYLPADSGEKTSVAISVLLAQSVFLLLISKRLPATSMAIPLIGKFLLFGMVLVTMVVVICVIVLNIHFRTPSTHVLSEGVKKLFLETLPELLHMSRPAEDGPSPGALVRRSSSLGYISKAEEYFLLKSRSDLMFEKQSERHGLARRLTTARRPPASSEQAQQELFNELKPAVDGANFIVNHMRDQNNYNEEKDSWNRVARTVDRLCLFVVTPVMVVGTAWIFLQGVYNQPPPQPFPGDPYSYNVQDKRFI
T2 sequence (P07510 23-517): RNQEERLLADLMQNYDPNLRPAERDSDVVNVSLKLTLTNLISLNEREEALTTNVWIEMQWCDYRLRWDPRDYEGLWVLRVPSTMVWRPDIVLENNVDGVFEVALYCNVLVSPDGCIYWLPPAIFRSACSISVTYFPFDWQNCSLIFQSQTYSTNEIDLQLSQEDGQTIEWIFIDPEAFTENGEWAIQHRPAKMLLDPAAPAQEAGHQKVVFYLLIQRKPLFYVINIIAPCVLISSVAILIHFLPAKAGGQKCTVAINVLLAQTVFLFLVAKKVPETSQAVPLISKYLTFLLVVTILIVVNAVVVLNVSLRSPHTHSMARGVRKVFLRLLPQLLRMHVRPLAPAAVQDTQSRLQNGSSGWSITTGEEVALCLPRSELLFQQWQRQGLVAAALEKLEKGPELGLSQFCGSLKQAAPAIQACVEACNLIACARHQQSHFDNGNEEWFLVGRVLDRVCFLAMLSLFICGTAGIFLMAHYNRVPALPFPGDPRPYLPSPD
T2 sequence (P11230 24-501): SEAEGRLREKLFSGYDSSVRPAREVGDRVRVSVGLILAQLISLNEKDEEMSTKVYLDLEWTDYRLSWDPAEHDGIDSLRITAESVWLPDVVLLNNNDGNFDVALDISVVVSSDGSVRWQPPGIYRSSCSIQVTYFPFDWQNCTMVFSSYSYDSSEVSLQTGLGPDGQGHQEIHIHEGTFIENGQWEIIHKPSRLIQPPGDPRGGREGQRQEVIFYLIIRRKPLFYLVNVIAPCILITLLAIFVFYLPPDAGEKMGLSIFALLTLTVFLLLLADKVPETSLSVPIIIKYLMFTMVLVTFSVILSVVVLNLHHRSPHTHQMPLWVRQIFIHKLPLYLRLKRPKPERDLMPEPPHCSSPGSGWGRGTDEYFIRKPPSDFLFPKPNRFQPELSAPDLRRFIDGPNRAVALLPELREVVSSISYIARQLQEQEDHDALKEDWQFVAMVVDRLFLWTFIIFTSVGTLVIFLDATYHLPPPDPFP
Method: as §1

[4] = target: rat α7 nAChR (Rattus norvegicus, UniProt Q05941); assay: cell-based; assay type: binding
Sequence of rat α7 nAChR (Q05941 23-502): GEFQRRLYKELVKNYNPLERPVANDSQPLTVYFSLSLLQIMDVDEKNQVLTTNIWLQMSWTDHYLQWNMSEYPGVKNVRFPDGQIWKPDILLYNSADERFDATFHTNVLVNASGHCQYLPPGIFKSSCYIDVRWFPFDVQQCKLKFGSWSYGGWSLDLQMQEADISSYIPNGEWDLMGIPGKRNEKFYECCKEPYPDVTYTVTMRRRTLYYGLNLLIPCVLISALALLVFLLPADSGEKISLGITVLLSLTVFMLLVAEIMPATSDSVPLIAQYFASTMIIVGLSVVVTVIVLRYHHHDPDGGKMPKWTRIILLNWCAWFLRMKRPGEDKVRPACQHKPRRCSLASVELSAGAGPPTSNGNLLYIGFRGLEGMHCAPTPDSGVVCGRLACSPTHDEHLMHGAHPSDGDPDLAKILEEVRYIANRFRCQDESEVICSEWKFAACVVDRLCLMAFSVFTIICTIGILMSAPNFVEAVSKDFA
Method: Binding studies with rat α7 nAChR were done using the rat pheochromocytoma cell line PC12 that endogenously expresses the α7 nAChR (American Type Culture Collection, Manassas, VA). PC12 cells were maintained in Ham F-12 nutrient mixture, containing 15% horse serum, 2.5% fetal bovine serum (FBS), 2 mM L-glutamine, 1.5 g/L NaHCO3, 100 units of penicillin, and 100 μg streptomycin.
For the binding assay, PC12 cells were resuspended in binding buffer (phosphate buffered saline with calcium and magnesium, containing 1% FBS and 0.02% NaN3) at 1.5 to 2.7 × 10^6 cells per ml and 55 μl (0.8–1.5 × 10^5 cells per well) was added to a 96-well, v-bottom plate. […]
Phycoerythrin-labeled streptavidin (streptavidin-PE) (Becton-Dickinson, Franklin Lakes, NJ) was diluted in binding buffer and 50 μl was added to the cells (excluding the cell control) at a 1.0 μg/ml final concentration. […] BTx binding was quantified by fluorescence-activated cell sorting (FACS) analysis. For each concentration of test compound, the displacement of BTx from the α7 nAChR was quantified by measuring the intensity of the fluorescent signal. […] Ki values were calculated from IC50 values using the Cheng-Prusoff equation: Ki=IC50/1+[BTx]/KD

[5] = system: collagen-induced arthritis; assay: collagen-induced arthritis in DBA/1 mice; conditions: for disease incidence and onset: 5 mg/kg oral daily day 20-34
Method: Collagen-induced arthritis was induced and evaluated as previously described. The severity of arthritis was assessed using an established semiquantitative scoring system (0–4; 0 = normal, 1 = swelling in 1 joint, 2 = swelling in >1 joint, 3 = swelling in the entire paw, and 4 = deformity and/or ankylosis. The cumulative score for all 4 paws of each mouse was used to represent overall disease severity and progression. Hind paw ankle joint thickness was measured using a caliper For the evaluation of incidence, mice were considered to have arthritis if the arthritis score increased by at least 1 point for 2 or more following days.
In study 1, we evaluated the role of the two novel α7nAChR-specific modulators in CIA. The receptors were stimulated by oral gavage of PMP-311 (5 mg/kg; n = 15) or PMP-072 (5 mg/kg; n = 17). The compounds were administered once a day from day 20 until the end of the experiment (day 34). Control mice received saline. In study 2, we evaluated the anti-inflammatory effects of different dosages of the α7nAChR-specific agonists. PMP-311 (2 or 10 mg/kg; n = 15) and PMP-072 (10 or 20 mg/kg; n = 15) were administered in the same way as in study 1. In both studies, mice were inspected daily for signs of arthritis and thickness of hind paws was measured using a caliper from day 16 till sacrifice by 2 independent observers (MAvM and JK) who were not aware of the treatment.
Hind paws were used for radiographic evaluation. Joint destruction was scored on a scale of 0–4, where 0 = no damage, 1 = demineralization, 2 = 1 or 2 erosions, 3 = severe erosions, and 4 = complete destruction of the joints. The radiographs were scored by 2 independent observers (MAvM and MJV) in a blinded manner; minor differences in scoring between the observers were resolved by mutual agreement.
Hind paws were fixed for 24 hours in 10% buffered formalin and decalcified in 15% EDTA. The paws were then embedded in paraffin, and serial 5 μm sagittal sections of whole hind paws were cut and stained with hematoxylin and eosin (HE). Two independent observers (MAvM and MJV) assessed the tissue for the degree of synovitis by microscopic evaluation, under blinded conditions, as described previously. Synovitis was graded on a scale of 0 (no inflammation) to 3 (severely inflamed joint) based on the extent of infiltration of inflammatory cells into the synovium.
To evaluate the effects of different treatments, we determined the change in clinical arthritis scores in each mouse from the start of treatment until the end of the experiment. AUC for the change in arthritis scores were calculated. The significance of the differences in the mean changes in scores (clinical, radiologic and histologic) between groups was determined by Kruskal-Wallis test followed by Mann-Whitney U test (SPSS version 12.0.2; SPSS, Chicago, IL). Incidence was compared using Kaplan-Meier survival analysis (GraphPad Prism). P values less than 0.05 were considered statistically significant.

[6] = CD1, plasma, mouse, 5 mg/kg oral
[7] = study 1, 5 mg/kg oral daily day 20-34

Row | SMILES | Kp at 30 min [1] | Vd ([1]; CD1, plasma, mouse, 1 mg/kg IV) [L/kg] | half-life ([1]; CD1, plasma, mouse, 1 mg/kg IV) [min] | AUC [1, 6] [ng·h/mL] | Cmax [1, 6] | Tmax [1, 6] [min] | bioavailability [1, 6] [%] | Brain penetration [1] [%] | Ki [2] [nM] | Ki [3] [nM] | Ki [4] [nM] | effect on arthritis activity ([5]; 5 mg/kg oral daily) | joint destruction (radiographic score) ([5]; 5 mg/kg oral daily) | disease incidence and onset [5] | joint destruction (radiographic score) ([5]; 10 mg/kg oral daily) | reduction in arthritis score compared to saline ([5]; 10 mg/kg oral daily) [%] | other results
1 | c1cncc(OC[C@@H]2CNCCN2c2nc3ncccc3o2)c1 [PMP-311, (S)-2-(2-((Pyridin-3-yloxy)methyl)piperazin-1-yl)oxazolo[4,5-b]pyridine] | 0.44 | 1.94 | 19 | 567 | 787 ng/mL and 2.5 µM | 15 | 50 | 44 | 30 | > 100000 | 0.9 ± 0.2 | amelioration of clinical signs of arthritis | significant reduction in joint destruction | reduced disease incidence and delayed onset of disease | significantly decreased | 39 | clearance ([1]; CD1, plasma, mouse, 1 mg/kg IV): 72 mL/min/kg; half-life [1, 6]: 98 min; joint destruction (radiographic score) ([5]; 2 mg/kg oral daily): significant reduction in joint destruction; mice that developed arthritis ([5]; 2 mg/kg oral daily): 14 out of 15; paw swelling ([5]; 2 mg/kg oral daily): decreased; reduction in arthritis score compared to saline ([5]; 2 mg/kg oral daily): 40%; synovial inflammation ([5]; 2 mg/kg oral daily): significant reduction; animals that did not develop arthritis ([5]; 5 mg/kg oral daily): six out of 15; synovial inflammation (HE staining of knee joints) ([5]; 5 mg/kg oral daily): significant reduction of synovial inflammation; reduction in clinical score compared to saline ([5]; 5 mg/kg oral daily, dose-response comparison): 49%; decrease in paw swelling compared to saline-treated mice [5, 7]: 39%; decrease of AUC of clinical score compared to control mice [5, 7]: 51%
2 | COc1ccc(NC(=O)N2CCNC[C@@H]2COc2cccnc2)cc1 [PMP-072, (R)-N-(4-methoxyphenyl)-2-((pyridin-3-yloxy)methyl)piperazine-1-carboxamide] | 0.06 | 5.83 | 39 | 588 | 324 ng/mL and 940 nM | 30 | 76 | 6 | > 100000 | > 100000 | 6.9 ± 1.4 | did not significantly ameliorate arthritis activity; also recorded: trend towards improvement | did not reduce bone degradation | trend towards reduced incidence of disease | trend towards reduced joint destruction | 48 | Cl ([1]; mouse, 1 mg/kg IV): 103 mL/min/kg; T1/2 ([1]; mouse, 5 mg/kg oral): 104 min; paw swelling ([5]; 10 mg/kg oral daily): decrease in paw swelling; synovial inflammation (synovitis score) ([5]; 10 mg/kg oral daily): significantly lower scores for synovitis; effect on arthritis score ([5]; 20 mg/kg oral daily): no improvement; tolerability of treatment [5, 7]: tolerated the drug treatment well; tolerability of treatment ([5]; study 2, PMP-311 2 and 10 mg/kg, PMP-072 10 and 20 mg/kg): tolerated the drug treatments well
